Test results reported in US20010046963A1, “Novel use of flavones” (priority 2000, published 2001).

Key:
COX-2 mRNA = assay: Semi-quantitative RT-PCR determination of COX-2 mRNA levels in HT-29 cells; format: cell-based; details: for COX-2/GAPDH [AUC]: HT-29 cells, 150 μM flavone, n = 4
Method: (§1) HT-29 cells (passage 106) were provided by ATCC and used between passage 150 and 200. Cells were cultured and passaged in RPMI-1640 supplemented with […] and 2 mM glutamine (all from GIBCO, Eggenstein, Germany). Antibiotics added were 100 U/ml penicillin and 100 μg/ml streptomycin (GIBCO). The cultures were maintained in a humidified atmosphere of 95% air and 5% CO2 at 37° C. Cells were passaged at preconfluent densities by the use of a solution containing 0.05% trypsin and 0.5 mM EDTA (GIBCO).
(§2) RNA from HT-29 cells was isolated at the times indicated in table 5 according to the method described by Chomczynski and Sacchi Anal. Biochem. 162 (1987) 156 with slight modifications. Reverse transcription was done with 5 μg of isolated RNA. First strand cDNA synthesis was accomplished with an oligo-(dT)15 primer (MBI Fermentas). Amplification of sequence specific fragments (Taq Polymerase was from Sigma) was performed with 30 cycles (95° C. denaturation for 1 min, 55° C. hybridization for 2 min, 72° C. extensions for 2 min; Personal Cycler, Biometra, Göttingen, Germany). RT-PCR products were separated on a 1% agrose gel and visualized by ethidium bromide. The amount of first strand used to amplify specific sequences was derived from the linear range of amplification. The amplified GAP-DH sequence was used as a constitutively expressed control. The amplivied products were photographed and the intensity of the bands was analyzed by the SigmaGel software. No products were obtained for all genes without reverse transcription […]. A λ-DNA/EcoRI+HindIII marker (MBI Fermentas) was used in all PCR experiments as a size control of the amplified products. Amplified cDNA sequences (primers were custom synthesized by Eurogentec, Seraing, Belgium) were GAP-DH: bp 558-1010; COX-2: bp 1366-1870, NFχB:bp 2832-3401.
(§3) That this effect on gene expression occurred selectively was shown by unaltered mRNA levels of the tumor suppressor p53.
(§4) Semi-quantitative determination of COX-2 and NFχB mRNA levels in HT-29 cells by use of RT-PCR (n=4).

NFχB mRNA = assay: Semi-quantitative RT-PCR determination of NFχB mRNA levels in HT-29 cells; format: cell-based; details: for NFχB/GAPDH [AUC]: 150 μM flavone, n = 4
Method: as §1, §2, §3, §4

O=c1cc(-c2ccccc2)oc2ccccc12 [flavone, Flavone]
COX-2 transcript levels (in words) (COX-2 mRNA; HT-29 cells exposed to flavone for 48 h): diminished in its transcript levels drastically
COX-2/GAPDH [AUC] (COX-2 mRNA; incubation time 3 h): 0.69 AUC
COX-2/GAPDH [AUC] (COX-2 mRNA; incubation time 8 h): 0.35 AUC
NFχB/GAPDH [AUC] (NFχB mRNA; incubation time 3 h): 1.1 AUC
NFχB/GAPDH [AUC] (NFχB mRNA; incubation time 8 h): 1.7 AUC
mRNA of NFχB (in words) (NFχB mRNA; flavone treatment): reduced dramatically
